Data from ChEMBL document CHEMBL4196200 (J Med Chem, 2018).
Blank lines part the entries; values can stand above or below the molecule they belong to.

Columns and labels:
Vasopressin V1b receptor [1] = molecular target: T1, Vasopressin V1b receptor (Rattus norvegicus, UniProt P48974); experiment: Displacement of [3H]AVP from V1B receptor in Wistar rat pituitary membranes incubated for 60 mins by microplate scintillation counting method; type: cell membranes
T1 sequence (P48974 whole entry): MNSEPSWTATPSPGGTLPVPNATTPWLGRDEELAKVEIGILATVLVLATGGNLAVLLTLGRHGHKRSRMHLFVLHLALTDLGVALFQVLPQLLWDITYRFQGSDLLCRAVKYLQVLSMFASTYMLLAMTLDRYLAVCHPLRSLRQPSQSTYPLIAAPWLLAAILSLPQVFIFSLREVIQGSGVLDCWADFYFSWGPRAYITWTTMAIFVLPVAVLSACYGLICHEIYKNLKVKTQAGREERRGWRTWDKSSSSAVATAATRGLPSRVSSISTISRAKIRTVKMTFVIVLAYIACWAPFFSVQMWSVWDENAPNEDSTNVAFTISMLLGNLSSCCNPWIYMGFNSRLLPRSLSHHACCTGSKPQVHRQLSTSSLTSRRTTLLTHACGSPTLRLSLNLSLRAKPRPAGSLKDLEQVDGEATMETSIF

Oxytocin receptor [2] = molecular target: T2, Oxytocin receptor (Homo sapiens, UniProt P30559); experiment: Antagonist activity at human OTR receptor expressed in HEK293FT cells assessed as inhibition of LIT-001-induced response incubated for 30 mins by beta-arrestin recruitment assay; type: functional, cell-based
T2 sequence (P30559 whole entry): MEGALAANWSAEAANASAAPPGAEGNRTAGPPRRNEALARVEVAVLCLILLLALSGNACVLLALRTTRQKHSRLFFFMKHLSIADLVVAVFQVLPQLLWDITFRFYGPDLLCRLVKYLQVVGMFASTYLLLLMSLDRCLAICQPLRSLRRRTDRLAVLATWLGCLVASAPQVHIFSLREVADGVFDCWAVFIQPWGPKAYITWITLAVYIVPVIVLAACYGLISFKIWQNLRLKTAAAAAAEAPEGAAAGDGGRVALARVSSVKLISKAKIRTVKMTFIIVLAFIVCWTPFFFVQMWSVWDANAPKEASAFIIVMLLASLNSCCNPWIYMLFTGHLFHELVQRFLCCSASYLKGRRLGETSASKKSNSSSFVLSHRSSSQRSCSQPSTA

Oxytocin receptor [3] = molecular target: T2, Oxytocin receptor; experiment: Antagonist activity at human OTR receptor expressed in HEK293FT cells assessed as inhibition of LIT-001-induced calcium release by Aequorin based assay; type: functional, cell-based
Vasopressin V2 receptor [4] = molecular target: T3, Vasopressin V2 receptor (Homo sapiens, UniProt P30518); experiment: Antagonist activity at human V2 receptor expressed in HEK293FT cells assessed as inhibition of AVP-induced calcium release by Aequorin based assay; type: functional, cell-based
T3 sequence (P30518 whole entry): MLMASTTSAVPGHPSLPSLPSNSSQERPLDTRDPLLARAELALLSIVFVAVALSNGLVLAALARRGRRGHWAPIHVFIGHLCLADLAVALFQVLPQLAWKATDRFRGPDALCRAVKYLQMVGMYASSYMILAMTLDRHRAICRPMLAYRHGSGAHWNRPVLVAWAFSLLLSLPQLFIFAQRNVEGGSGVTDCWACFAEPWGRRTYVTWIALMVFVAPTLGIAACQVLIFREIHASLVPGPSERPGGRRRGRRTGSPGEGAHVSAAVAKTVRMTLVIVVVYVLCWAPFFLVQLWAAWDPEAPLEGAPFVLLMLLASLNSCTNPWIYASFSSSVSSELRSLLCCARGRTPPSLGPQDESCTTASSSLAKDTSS

Vasopressin V2 receptor [5] = molecular target: T3, Vasopressin V2 receptor; experiment: Antagonist activity at human V2 receptor expressed in HEK293FT cells assessed as inhibition of […] response incubated for 30 mins by beta-arrestin recruitment assay; type: functional, cell-based
Vasopressin V1a receptor [6] = molecular target: T4, Vasopressin V1a receptor (Homo sapiens, UniProt P37288); experiment: Binding affinity to V1A receptor (unknown origin)
Target sequence in this assay (P37288 whole entry): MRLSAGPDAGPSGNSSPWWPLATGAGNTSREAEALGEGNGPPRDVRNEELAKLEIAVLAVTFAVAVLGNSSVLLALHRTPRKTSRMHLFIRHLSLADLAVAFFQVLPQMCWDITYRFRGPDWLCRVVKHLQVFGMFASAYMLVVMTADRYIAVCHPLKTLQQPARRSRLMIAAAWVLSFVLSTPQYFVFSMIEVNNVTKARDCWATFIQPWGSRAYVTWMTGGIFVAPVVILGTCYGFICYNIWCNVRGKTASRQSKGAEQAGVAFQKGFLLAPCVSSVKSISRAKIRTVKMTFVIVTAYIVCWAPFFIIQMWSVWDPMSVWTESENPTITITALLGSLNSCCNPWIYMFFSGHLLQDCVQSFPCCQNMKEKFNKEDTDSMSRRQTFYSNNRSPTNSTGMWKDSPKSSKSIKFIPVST

Vasopressin V1b receptor [7] = molecular target: T5, Vasopressin V1b receptor (Homo sapiens, UniProt P47901); experiment: Binding affinity to V1B receptor (unknown origin)
T5 sequence (P47901 whole entry): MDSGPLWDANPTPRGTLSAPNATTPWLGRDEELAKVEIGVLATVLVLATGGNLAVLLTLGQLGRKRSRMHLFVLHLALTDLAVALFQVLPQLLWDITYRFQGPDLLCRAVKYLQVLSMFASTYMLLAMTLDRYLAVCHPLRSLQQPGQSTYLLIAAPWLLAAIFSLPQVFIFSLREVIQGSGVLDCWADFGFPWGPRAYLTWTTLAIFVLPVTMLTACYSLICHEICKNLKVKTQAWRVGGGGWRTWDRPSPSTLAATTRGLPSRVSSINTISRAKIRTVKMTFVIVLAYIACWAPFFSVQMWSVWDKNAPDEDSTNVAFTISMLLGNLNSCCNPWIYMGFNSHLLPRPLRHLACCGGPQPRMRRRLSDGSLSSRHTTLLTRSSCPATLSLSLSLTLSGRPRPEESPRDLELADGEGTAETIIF

Vasopressin V2 receptor [8] = molecular target: T3, Vasopressin V2 receptor; experiment: Binding affinity to V2 receptor (unknown origin)
Oxytocin receptor [9] = molecular target: T2, Oxytocin receptor; experiment: Binding affinity to OTR receptor (unknown origin)
Vasopressin V2 receptor [10] = molecular target: T3, Vasopressin V2 receptor; experiment: Agonist activity at V2 receptor (unknown origin) by cAMP accumulation assay; type: functional
Vasopressin V1a receptor [11] = molecular target: T4, Vasopressin V1a receptor; experiment: Antagonist activity at V1A receptor (unknown origin) by cAMP accumulation assay; type: functional
Target sequence in this assay (P37288 whole entry): as the sequence (P37288 whole entry) above

Oxytocin receptor [12] = molecular target: T6, Oxytocin receptor (Rattus norvegicus, UniProt P70536); experiment: Antagonist activity at OXR receptor in rat uterus; type: functional
T6 sequence (P70536 whole entry): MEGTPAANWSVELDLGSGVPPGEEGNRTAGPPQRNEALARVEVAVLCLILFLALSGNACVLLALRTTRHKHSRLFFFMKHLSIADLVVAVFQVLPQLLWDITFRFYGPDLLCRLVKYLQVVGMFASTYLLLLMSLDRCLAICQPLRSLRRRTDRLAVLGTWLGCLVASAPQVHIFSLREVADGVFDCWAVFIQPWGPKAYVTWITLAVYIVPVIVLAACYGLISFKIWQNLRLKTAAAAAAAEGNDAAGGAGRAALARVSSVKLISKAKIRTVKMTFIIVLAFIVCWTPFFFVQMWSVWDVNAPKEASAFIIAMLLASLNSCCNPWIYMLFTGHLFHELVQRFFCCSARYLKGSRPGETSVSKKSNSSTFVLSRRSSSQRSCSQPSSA

Vasopressin V1a receptor [13] = molecular target: T4, Vasopressin V1a receptor; experiment: Antagonist activity at human V1A receptor expressed in CHO cells assessed as inhibition of AVP-induced myo-inositol 1-phosphate accumulation at 1 uM by IP-One assay relative to AVP; type: functional, cell-based
Target sequence in this assay (P37288 whole entry, looked up): as the sequence (P37288 whole entry) above

Vasopressin V1a receptor [14] = molecular target: T4, Vasopressin V1a receptor; experiment: Agonist activity at human V1A receptor expressed in CHO cells assessed as increase in myo-inositol 1-phosphate accumulation at 1 uM by IP-One assay relative to AVP; type: functional, cell-based
Target sequence in this assay (P37288 whole entry, looked up): as the sequence (P37288 whole entry) above

Homo sapiens [15] = organism: Homo sapiens; experiment: Selectivity for human V1a receptor over human V2 receptor
Homo sapiens [16] = organism: Homo sapiens; experiment: Selectivity for human OTR receptor over human V2 receptor

Ki (Vasopressin V1b receptor [1]): > 10000 nM
SMILES: Cc1nc2c([nH]1)-c1ccccc1N(C(=O)c1ccc(NC(=O)c3ccccc3-c3ccccc3)cc1)CC2 [CONIVAPTAN]

IC50 (Oxytocin receptor [2]): 63 nM
IC50 (Oxytocin receptor [3]): 600 nM
IC50 (Vasopressin V2 receptor [4]): 1530 nM
IC50 (Vasopressin V2 receptor [5]): 2620 nM
SMILES: COCc1nnc(N2CC(Oc3ccc(F)cc3Cl)C2)n1-c1ccc(OC)nc1

Ki (Vasopressin V1a receptor [6]): 465 nM
Ki (Vasopressin V1b receptor [7]): > 1000 nM
Ki (Vasopressin V2 receptor [8]): 39.9 nM
Ki (Oxytocin receptor [9]): 125 nM
EC50 (Vasopressin V2 receptor [10]): 0.7 nM
IC50 (Vasopressin V1a receptor [11]): 1660 nM
IC50 (Oxytocin receptor [12]): 55 nM
inhibition (Vasopressin V1a receptor [13]): 33%
Emax (Vasopressin V1a receptor [14]): < 10%
Selectivity ratio (Homo sapiens [15]): 6.9
Selectivity ratio (Homo sapiens [16]): 4
SMILES: Cc1ccn(-c2ccc(C(=O)N3Cc4cccn4Cc4ccccc43)c(Cl)c2)n1
